These results are taken from patent US8734852B2, “Parenteral controlled release formulations of NSAID's” (priority 2011, dated 2014).

One series concerns the target COX-I (Homo sapiens, UniProt P23219). The note with it: oral form; cited from earlier work.
Series [1] deals with interleukin1b-induced prostaglandin E2 production. The note with it: cited from earlier work.
For series [2] the following is noted: cited from earlier work.
The conditions of series [3]: upon dissolution in solvents; cited from earlier work.
A further series relates to Acute Lumbago patients. Description: Randomized comparative open labeled multicentric trial in Acute Lumbago (Phase III, 300 patients). The class given is in vivo, human. The note with it: at 8 hrs, 24 hrs and after 48 hrs of treatment; p<0.05.
For series [4] the following is noted: aqueous formulation; cited from earlier work.

COX-I, sequence (P23219 24-599): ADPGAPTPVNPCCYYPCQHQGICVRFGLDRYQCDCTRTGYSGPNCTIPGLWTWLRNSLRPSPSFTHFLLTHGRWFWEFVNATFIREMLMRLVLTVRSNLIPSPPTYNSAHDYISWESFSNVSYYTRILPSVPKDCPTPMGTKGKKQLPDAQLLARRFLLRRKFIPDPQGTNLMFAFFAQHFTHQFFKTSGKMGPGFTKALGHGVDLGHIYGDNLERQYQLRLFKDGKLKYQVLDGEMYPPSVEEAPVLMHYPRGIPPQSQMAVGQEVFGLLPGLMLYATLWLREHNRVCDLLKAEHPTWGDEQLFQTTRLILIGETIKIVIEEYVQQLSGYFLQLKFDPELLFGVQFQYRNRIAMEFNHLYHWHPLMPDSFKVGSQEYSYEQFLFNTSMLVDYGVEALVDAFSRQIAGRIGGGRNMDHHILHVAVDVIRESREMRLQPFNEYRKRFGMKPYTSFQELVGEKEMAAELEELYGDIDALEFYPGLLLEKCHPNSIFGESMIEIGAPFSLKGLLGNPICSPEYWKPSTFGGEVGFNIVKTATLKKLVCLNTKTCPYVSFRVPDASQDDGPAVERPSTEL

Consider `O=C(O)COC(=O)Cc1ccccc1Nc1c(Cl)cccc1Cl` [Aceclofenac], for which the COX-I inhibitor effect result at COX-I is “poor COX-I inhibitor effect”. The “interleukin1b-induced prostaglandin E2 production” value in series [1] is recorded as “inhibits”. In series [2], the solubility in water entry is recorded as “water insoluble”. For the same molecule, in series [3], the conversion into diclofenac result is “immediately upon dissolution in most of the solvents”.

With `O=C(O)Cc1ccccc1Nc1c(Cl)cccc1Cl` [Diclofenac], the “modified Schober's test improvement” value with Acute Lumbago patients was “progressive improvements”. Besides, the solubility in water result in series [2] is given as “soluble in water”. Moreover, the “retention of drug inside body” value in series [4] is at most 8 h.
